# Test results: BindingDB's records for doi:10.1016/j.chembiol.2016.02.015 (Max Planck Institute of Molecular Physiology, 2016)
# Experiments:
# [1] = biological target: Casein kinase I isoform delta (Homo sapiens, UniProt P48730); test: KinaseGlo Plus Luminescent Assay; settings: pH 7.5
# Procedure: (§1) A stock solution of 5 % DMSO (BioReagent for molecular biology, Sigma Aldrich) in water was prepared. The CK1 substrate peptide RRKDLHDDEEDEAMSITA (Jena Bioscience, cat. no. PE-206, 2 mM stock solution in water) was diluted in water to a final concentration of 250 μM. CK1δ or CK1Ɛ kinases were diluted with CK1 dilution buffer to 50 ng / µL. In addition, fresh Reaction buffer was prepared containing 250 mM Tris-HCl (pH 7.5), 50 mM MgCl2, 5 mM DTT and 0.5 mg / mL bovine serum albumin (BSA). Compounds were serially diluted in 5 % DMSO solution to the desired concentrations (maximal concentration employed in the assay was 50 µM). Additional samples included blank sample containing Reaction buffer, water and CK1δ / CK1Ɛ kinase and control sample containing Reaction buffer, CK1 substrate peptide and CK1δ / CK1Ɛ kinase. CK1 substrate peptide, Reaction buffer and CK1δ / CK1Ɛ kinase stock solutions were mixed in 1:1:1 ratio. 6 μL of this mixtur
# [2] = biological target: Casein kinase I isoform epsilon (Homo sapiens, UniProt P49674); test: KinaseGlo Plus Luminescent Assay; settings: pH 7.5
# Casein kinase I isoform epsilon, sequence (P49674 whole entry, canonical isoform): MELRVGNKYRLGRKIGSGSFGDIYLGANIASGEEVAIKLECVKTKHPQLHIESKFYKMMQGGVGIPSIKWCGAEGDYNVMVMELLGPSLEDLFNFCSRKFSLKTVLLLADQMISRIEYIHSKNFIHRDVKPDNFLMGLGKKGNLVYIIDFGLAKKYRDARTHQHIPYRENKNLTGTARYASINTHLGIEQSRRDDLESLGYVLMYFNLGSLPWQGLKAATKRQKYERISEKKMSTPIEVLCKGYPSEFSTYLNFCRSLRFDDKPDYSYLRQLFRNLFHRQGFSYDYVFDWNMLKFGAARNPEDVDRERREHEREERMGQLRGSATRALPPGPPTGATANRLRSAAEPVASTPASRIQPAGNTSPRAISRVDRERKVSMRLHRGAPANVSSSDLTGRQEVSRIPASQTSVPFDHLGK
# Procedure: as §1
# [3] = biological target: Casein kinase I isoform alpha (Homo sapiens, UniProt P48729); test: Radiometric-Based Assay (CK1α)
# Casein kinase I isoform alpha, sequence (P48729 whole entry, canonical isoform): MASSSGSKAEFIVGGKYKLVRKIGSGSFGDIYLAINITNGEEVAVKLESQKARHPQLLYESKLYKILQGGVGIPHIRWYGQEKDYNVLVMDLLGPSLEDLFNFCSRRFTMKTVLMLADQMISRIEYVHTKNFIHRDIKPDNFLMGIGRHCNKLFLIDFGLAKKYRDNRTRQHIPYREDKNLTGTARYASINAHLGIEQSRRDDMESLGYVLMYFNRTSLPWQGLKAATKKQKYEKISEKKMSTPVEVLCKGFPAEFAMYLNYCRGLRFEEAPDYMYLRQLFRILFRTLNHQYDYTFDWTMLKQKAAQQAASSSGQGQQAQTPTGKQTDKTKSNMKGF
# Procedure: Single-point measurements analyses and subsequent dose-dependent investigations of selected pteridine derivatives for inhibition of CK1α were performed at Reaction Biology (USA) using a radiometric-based assay and ATP concentration of 10 µM. For more details related to the experimental conditions employed please consult the following websites: http://www.reactionbiology.com/webapps/site/KinaseDetail.aspx.
# [4] = biological target: Receptor-interacting serine/threonine-protein kinase 2 (Homo sapiens, UniProt O43353); test: Radiometric-Based Assay (Epiblastin A)
# Receptor-interacting serine/threonine-protein kinase 2, sequence (O43353 whole entry): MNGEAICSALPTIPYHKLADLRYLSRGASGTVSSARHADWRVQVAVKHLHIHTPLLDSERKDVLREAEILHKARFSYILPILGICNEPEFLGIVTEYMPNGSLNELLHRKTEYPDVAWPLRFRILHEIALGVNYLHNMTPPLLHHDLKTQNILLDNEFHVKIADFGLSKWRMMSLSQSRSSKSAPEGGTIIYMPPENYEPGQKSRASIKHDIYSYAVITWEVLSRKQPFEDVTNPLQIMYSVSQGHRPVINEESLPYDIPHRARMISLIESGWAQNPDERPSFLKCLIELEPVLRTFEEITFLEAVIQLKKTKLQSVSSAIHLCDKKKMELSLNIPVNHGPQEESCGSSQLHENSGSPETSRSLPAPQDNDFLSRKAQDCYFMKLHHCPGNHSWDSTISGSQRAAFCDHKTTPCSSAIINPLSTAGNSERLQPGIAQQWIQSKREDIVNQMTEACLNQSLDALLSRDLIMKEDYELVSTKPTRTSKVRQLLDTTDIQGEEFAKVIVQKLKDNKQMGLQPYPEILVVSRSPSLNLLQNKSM
# Source text: (§2) Dose-dependent investigations of Epiblastin A against BrSK1, Egfr, eEF2k, Mknk2, Ripk2 and Stk10 have been performed under the same experimental setup, i.e. at Km-ATP value. Half-maximal inhibitory concentrations (IC50) were obtained by fitting the obtained data with three parameter nonlinear regression analysis using GraphPad Prism version 6.00 for Windows (GraphPad Software, USA). For more details related to the experimental conditions employed at Eurofins please consult the following website: http://www.eurofins.com/pharma-services/pharma-discovery-services/services/in-vitropharmacology/kinases/biochemical.aspx
# [5] = biological target: T1, Epidermal growth factor receptor [1-973] (Homo sapiens, UniProt P00533); test: Radiometric-Based Assay (Epiblastin A)
# T1 construct: 1-973
# T1 sequence (P00533 1-973): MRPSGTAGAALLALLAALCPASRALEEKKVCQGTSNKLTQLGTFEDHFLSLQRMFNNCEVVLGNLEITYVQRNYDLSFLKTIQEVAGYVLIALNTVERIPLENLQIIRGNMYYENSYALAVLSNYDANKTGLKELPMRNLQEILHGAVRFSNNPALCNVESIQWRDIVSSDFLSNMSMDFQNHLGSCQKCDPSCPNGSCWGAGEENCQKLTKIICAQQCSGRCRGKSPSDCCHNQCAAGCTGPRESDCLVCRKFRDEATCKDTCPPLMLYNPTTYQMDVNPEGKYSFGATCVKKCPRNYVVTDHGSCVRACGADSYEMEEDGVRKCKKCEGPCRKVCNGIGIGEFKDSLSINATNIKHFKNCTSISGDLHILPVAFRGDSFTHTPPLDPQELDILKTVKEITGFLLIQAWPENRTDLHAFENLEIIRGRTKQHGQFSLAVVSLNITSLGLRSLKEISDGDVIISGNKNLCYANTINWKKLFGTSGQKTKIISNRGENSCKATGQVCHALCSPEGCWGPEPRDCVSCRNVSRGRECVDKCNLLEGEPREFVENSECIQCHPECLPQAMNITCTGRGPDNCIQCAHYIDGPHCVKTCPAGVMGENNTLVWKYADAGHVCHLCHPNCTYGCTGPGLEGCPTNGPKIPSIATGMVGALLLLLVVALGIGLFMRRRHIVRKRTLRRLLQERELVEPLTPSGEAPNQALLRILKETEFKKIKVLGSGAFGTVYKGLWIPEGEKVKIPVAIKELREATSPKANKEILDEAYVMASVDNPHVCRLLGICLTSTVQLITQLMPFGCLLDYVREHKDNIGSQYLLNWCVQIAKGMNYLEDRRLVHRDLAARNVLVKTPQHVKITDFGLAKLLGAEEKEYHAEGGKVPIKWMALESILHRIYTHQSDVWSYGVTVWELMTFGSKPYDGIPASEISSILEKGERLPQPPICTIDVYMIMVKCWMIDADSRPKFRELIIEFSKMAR
# Source text: as §2
# [6] = biological target: T2, Serine/threonine-protein kinase BRSK1 (Homo sapiens, UniProt Q8TDC3); test: Radiometric-Based Assay (Epiblastin A)
# T2 sequence (Q8TDC3 whole entry): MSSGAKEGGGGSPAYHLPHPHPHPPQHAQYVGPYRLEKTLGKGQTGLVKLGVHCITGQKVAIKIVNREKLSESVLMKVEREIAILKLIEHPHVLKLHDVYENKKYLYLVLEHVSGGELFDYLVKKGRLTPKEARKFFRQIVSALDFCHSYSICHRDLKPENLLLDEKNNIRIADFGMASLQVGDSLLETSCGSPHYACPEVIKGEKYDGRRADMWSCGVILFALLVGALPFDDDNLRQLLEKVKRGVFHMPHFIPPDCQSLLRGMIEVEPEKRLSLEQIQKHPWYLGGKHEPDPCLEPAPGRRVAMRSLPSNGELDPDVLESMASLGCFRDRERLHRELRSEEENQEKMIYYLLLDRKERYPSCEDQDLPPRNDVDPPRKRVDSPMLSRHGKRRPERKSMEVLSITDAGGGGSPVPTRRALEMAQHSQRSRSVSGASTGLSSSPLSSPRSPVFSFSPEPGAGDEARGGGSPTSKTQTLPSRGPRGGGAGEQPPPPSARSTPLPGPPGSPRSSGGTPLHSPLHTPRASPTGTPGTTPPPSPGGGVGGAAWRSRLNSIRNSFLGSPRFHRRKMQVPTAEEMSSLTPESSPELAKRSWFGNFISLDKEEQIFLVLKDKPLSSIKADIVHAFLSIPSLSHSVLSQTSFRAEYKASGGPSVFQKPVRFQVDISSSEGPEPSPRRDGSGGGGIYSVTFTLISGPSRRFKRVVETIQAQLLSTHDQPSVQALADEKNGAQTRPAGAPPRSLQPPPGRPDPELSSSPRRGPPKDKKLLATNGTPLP
# Source text: as §2
# [7] = biological target: T3, Eukaryotic elongation factor 2 kinase (Homo sapiens, UniProt O00418); test: Radiometric-Based Assay (Epiblastin A)
# T3 sequence (O00418 whole entry): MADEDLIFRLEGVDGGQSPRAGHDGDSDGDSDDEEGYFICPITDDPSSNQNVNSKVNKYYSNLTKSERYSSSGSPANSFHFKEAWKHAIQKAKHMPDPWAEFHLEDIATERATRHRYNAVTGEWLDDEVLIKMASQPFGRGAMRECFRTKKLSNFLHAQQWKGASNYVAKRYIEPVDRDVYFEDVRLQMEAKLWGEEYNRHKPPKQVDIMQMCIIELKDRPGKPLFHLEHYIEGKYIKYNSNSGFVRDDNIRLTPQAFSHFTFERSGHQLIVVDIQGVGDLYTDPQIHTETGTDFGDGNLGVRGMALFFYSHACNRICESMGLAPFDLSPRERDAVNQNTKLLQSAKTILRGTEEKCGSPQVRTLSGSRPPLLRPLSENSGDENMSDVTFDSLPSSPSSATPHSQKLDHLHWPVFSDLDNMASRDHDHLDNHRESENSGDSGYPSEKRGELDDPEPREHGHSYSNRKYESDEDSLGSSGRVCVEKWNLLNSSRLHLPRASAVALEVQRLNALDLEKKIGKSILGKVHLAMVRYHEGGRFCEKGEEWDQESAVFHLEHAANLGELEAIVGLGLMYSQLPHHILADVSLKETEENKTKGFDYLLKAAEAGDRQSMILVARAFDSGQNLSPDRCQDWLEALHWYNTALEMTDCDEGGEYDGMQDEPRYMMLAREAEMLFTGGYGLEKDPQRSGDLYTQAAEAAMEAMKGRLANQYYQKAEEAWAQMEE
# Source text: as §2
# [8] = biological target: MAP kinase-interacting serine/threonine-protein kinase 2 (Homo sapiens, UniProt Q9HBH9); test: Radiometric-Based Assay (Epiblastin A)
# MAP kinase-interacting serine/threonine-protein kinase 2, sequence (Q9HBH9 whole entry): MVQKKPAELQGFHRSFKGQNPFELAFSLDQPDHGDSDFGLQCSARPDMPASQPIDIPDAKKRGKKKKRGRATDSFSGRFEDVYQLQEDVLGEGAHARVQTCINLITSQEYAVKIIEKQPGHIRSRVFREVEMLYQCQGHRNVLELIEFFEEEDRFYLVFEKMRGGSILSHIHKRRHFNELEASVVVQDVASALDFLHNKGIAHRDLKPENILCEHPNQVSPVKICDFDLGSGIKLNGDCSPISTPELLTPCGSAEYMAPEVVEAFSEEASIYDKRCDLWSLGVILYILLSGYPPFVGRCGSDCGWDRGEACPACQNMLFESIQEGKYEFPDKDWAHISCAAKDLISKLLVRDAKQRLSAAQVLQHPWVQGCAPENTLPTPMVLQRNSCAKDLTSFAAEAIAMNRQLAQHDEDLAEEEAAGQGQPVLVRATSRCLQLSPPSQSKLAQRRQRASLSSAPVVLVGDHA
# Source text: as §2
# Casein kinase I isoform delta, sequence (P48730 whole entry, canonical isoform): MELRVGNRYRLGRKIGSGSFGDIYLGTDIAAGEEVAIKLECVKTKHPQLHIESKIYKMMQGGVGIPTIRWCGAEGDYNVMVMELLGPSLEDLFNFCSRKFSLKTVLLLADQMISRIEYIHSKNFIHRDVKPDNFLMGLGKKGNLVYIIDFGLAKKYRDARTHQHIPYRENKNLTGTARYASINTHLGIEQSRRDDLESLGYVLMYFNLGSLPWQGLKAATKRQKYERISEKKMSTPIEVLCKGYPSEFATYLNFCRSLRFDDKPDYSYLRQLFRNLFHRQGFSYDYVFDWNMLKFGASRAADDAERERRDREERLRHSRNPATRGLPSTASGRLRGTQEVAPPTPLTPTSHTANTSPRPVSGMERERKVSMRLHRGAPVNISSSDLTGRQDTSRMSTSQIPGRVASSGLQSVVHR
IC50 [1] [µM],IC50 [2] [µM],IC50 [3] [µM],SMILES,further results
20.2,,,"Cc1cccc(-c2nc3c(N)nc(N)nc3nc2N)c1 [6-m-Tolyl-pteridine-2,4,7-triamine]",
,38.9,,"Nc1nc(N)c2nc(-c3c(Cl)cccc3Cl)c(N)nc2n1 [6-(2,6-dichlorophenyl)pteridine-2,4,7-triamine (24)]",
9.6,6.6,5.5,"Nc1nc(N)c2nc(-c3cccc(Oc4ccccc4)c3)c(Cc3ccccc3)nc2n1 [7-benzyl-6-(3-phenoxyphenyl)pteridine-2,4-diamine (36)]",
61.8,14.4,33.3,"Nc1nc(N)c2nc(-c3cccc(F)c3)c(N)nc2n1 [6-(3-fluorophenyl)pteridine-2,4,7-triamine (16)]",
81.2,,,"Nc1ccc(-c2nc3c(N)nc(N)nc3nc2N)cc1 [6-(4-aminophenyl)pteridine-2,4,7-triamine (10)]",
,4.3,55.6,"Nc1nc(N)c2nc(-c3ccc(Cl)cc3Cl)c(N)nc2n1 [6-(2,4-dichlorophenyl)pteridine-2,4,7-triamine (25)]",
36.4,26.8,36.8,Nc1nc(N)c2nc(-c3ccccc3)c(N)nc2n1 [Pteridine deriv. 11],
,38.4,,"Nc1nc(N)c2nc(-c3cc(F)ccc3F)c(N)nc2n1 [6-(2,5-difluorophenyl)pteridine-2,4,7-triamine (28)]",
35.7,51.5,,"Nc1nc(N)c2nc(-c3c(F)cccc3F)c(N)nc2n1 [6-(2,6-difluorophenyl)pteridine-2,4,7-triamine (27)]",
80.6,6,29.5,"Nc1nc(N)c2nc(-c3ccccc3)cnc2n1 [6-phenylpteridine-2,4-diamine (35)]",
,28.3,,"Nc1nc(N)c2nc(-c3ccccc3F)c(N)nc2n1 [6-(2-fluorophenyl)pteridine-2,4,7-triamine (23)]",
24.4,8.1,14.2,"Nc1nc(N)c2nc(-c3cccs3)c(N)nc2n1 [6-(thiophen-2-yl)pteridine-2,4,7-triamine (32)]",
32.4,12.4,,"Nc1cccc(-c2nc3c(N)nc(N)nc3nc2N)c1 [6-(3-aminophenyl)pteridine-2,4,7-triamine (21)]",
16.1,15.5,,"Nc1nc(N)c2nc(-c3cccnc3)c(N)nc2n1 [6-(pyridin-3-yl)pteridine-2,4,7-triamine (33)]",
2.8,0.6,5.6,"Nc1nc(N)c2nc(-c3csc4ccccc34)c(N)nc2n1 [6-(1-benzothiophen-3-yl)pteridine-2,4,7-triamine (31)]",
2.5,,9.3,"Nc1nc(N)c2nc(-c3cccc(Br)c3)c(N)nc2n1 [6-(3-bromophenyl)pteridine-2,4,7-triamine (18)]",
12.3,26.3,,"COc1cccc(-c2nc3c(N)nc(N)nc3nc2N)c1 [6-(3-methoxyphenyl)pteridine-2,4,7-triamine (20)]",
0.5,4.7,8.9,Nc1nc(N)c2nc(-c3cccc(Cl)c3)c(N)nc2n1 [Epiblastin A],IC50 [4]: 38.1 µM; IC50 [5]: 8.3 µM; IC50 [6]: 24.2 µM; IC50 [7]: 27.4 µM; IC50 [8]: 45.1 µM
